± gives the expanded uncertainty stated by the source.
Assay: activity coefficient (dimensionless); of the first substance listed, at infinite dilution; xn = mol fraction of the nth substance listed
Settings: 101 kPa, Liquid, Chromatography, x1 = 0

Row | SMILES | activity coefficient (313.15 K) | activity coefficient (323.15 K) | activity coefficient (333.15 K) | activity coefficient (343.15 K) | activity coefficient (353.15 K) | activity coefficient (363.15 K)
1 | CC1CCCCC1 [methylcyclohexane] + CCCCOP(=O)([O-])OCCCC.CCCCn1cc[n+](C)c1 | 3.7 ± 0.22 | 3.61 ± 0.21 | 3.54 ± 0.21 | 3.48 ± 0.21 | 3.41 ± 0.2 | 3.35 ± 0.2
2 | Cc1cccc(C)c1 [1,3-dimethylbenzene] + CCCCOP(=O)([O-])OCCCC.CCCCn1cc[n+](C)c1 | 1.99 ± 0.12 | 1.95 ± 0.12 | 1.92 ± 0.11 | 1.88 ± 0.11 | 1.85 ± 0.11 | 1.83 ± 0.11
3 | CCCCCCCCC [nonane] + CCCCOP(=O)([O-])OCCCC.CCCCn1cc[n+](C)c1 | 7.69 ± 0.46 | 7.47 ± 0.45 | 7.31 ± 0.44 | 7.13 ± 0.42 | 7.02 ± 0.42 | 6.88 ± 0.41
4 | C=Cc1ccccc1 [styrene] + CCCCOP(=O)([O-])OCCCC.CCCCn1cc[n+](C)c1 | 1.19 ± 0.07 | 1.15 ± 0.06 | 1.09 ± 0.06 | 1.07 ± 0.06 | 1.03 ± 0.06 | 0.98 ± 0.05
5 | CCCCCCC [heptane] + CCCCOP(=O)([O-])OCCCC.CCCCn1cc[n+](C)c1 | 5.5 ± 0.33 | 5.38 ± 0.32 | 5.29 ± 0.31 | 5.21 ± 0.31 | 5.12 ± 0.3 | 5.05 ± 0.3
6 | CCCCC [pentane] + CCCCOP(=O)([O-])OCCCC.CCCCn1cc[n+](C)c1 | 4.12 ± 0.25 | 4.05 ± 0.24 | 3.93 ± 0.23 | 3.86 ± 0.23 | 3.79 ± 0.23 | 3.72 ± 0.22
7 | c1ccccc1 [benzene] + CCCCOP(=O)([O-])OCCCC.CCCCn1cc[n+](C)c1 | 1.03 ± 0.06 | 0.97 ± 0.05 | 0.93 ± 0.05 | 0.9 ± 0.05 | 0.88 ± 0.05 | 0.85 ± 0.05
8 | CCCCCCCCCC [decane] + CCCCOP(=O)([O-])OCCCC.CCCCn1cc[n+](C)c1 | 10 ± 0.6 | 9.65 ± 0.58 | 9.16 ± 0.55 | 8.78 ± 0.52 | 8.54 ± 0.51 | 8.25 ± 0.49
9 | C1=CCCCC1 [cyclohexene] + CCCCOP(=O)([O-])OCCCC.CCCCn1cc[n+](C)c1 | 2.2 ± 0.13 | 2.15 ± 0.13 | 2.11 ± 0.13 | 2.05 ± 0.12 | 2.02 ± 0.12 | 1.96 ± 0.12
10 | CC(C)CC(C)(C)C [2,2,4-trimethylpentane] + CCCCOP(=O)([O-])OCCCC.CCCCn1cc[n+](C)c1 | 6.2 ± 0.37 | 6.12 ± 0.36 | 6.06 ± 0.36 | 6.01 ± 0.36 | 5.94 ± 0.35 | 5.88 ± 0.35
11 | CCCCCCCC [octane] + CCCCOP(=O)([O-])OCCCC.CCCCn1cc[n+](C)c1 | 6.54 ± 0.39 | 6.43 ± 0.38 | 6.36 ± 0.38 | 6.28 ± 0.37 | 6.21 ± 0.37 | 6.15 ± 0.37
12 | Cc1ccc(C)cc1 [1,4-dimethylbenzene] + CCCCOP(=O)([O-])OCCCC.CCCCn1cc[n+](C)c1 | 1.91 ± 0.11 | 1.86 ± 0.11 | 1.82 ± 0.11 | 1.78 ± 0.1 | 1.75 ± 0.1 | 1.72 ± 0.1
13 | Cc1ccccc1C [1,2-dimethylbenzene] + CCCCOP(=O)([O-])OCCCC.CCCCn1cc[n+](C)c1 | 1.8 ± 0.11 | 1.77 ± 0.1 | 1.73 ± 0.1 | 1.71 ± 0.1 | 1.68 ± 0.1 | 1.65 ± 0.1
14 | C1CCCCC1 [cyclohexane] + CCCCOP(=O)([O-])OCCCC.CCCCn1cc[n+](C)c1 | 3.09 ± 0.18 | 2.99 ± 0.18 | 2.84 ± 0.17 | 2.76 ± 0.16 | 2.68 ± 0.16 | 2.59 ± 0.15
15 | CCCCCC [hexane] + CCCCOP(=O)([O-])OCCCC.CCCCn1cc[n+](C)c1 | 4.73 ± 0.28 | 4.63 ± 0.28 | 4.51 ± 0.27 | 4.45 ± 0.26 | 4.32 ± 0.26 | 4.24 ± 0.25
16 | Cc1ccccc1 [toluene] + CCCCOP(=O)([O-])OCCCC.CCCCn1cc[n+](C)c1 | 1.39 ± 0.08 | 1.35 ± 0.08 | 1.32 ± 0.07 | 1.3 ± 0.07 | 1.29 ± 0.07 | 1.27 ± 0.07

Reference: the NIST ThermoML archive (doi:10.1021/je201310d)
